Measured values: paper PMC11124822, “Discovery and Anticancer Screening of Novel Oxindole-Based Derivative Bearing Pyridyl Group as Potent and Selective Dual FLT3/CDK2 Kinase Inhibitor” (Pharmaceuticals, 2024)

Assays:
SW-620 = assay: NCI-60 antiproliferative screen (SRB); assay type: cell-based, human; details: 48 h
K-562 = assay: NCI-60 antiproliferative screen (SRB); assay type: cell-based, human; details: 48 h
786-0 = assay: NCI-60 antiproliferative screen (SRB); assay type: cell-based, human; details: 48 h
HS 578T = assay: NCI-60 antiproliferative screen (SRB); assay type: cell-based, human; details: 48 h
MOLT-4 = assay: NCI-60 antiproliferative screen (SRB); assay type: cell-based; details: Homo sapiens, 48 h
A549/ATCC = assay: NCI-60 antiproliferative screen (SRB); assay type: cell-based, human; details: 48 h
HCT-116 = assay: NCI-60 antiproliferative screen (SRB); assay type: cell-based, human; details: 48 h
MDA-MB-468 = assay: NCI-60 antiproliferative screen (SRB); assay type: cell-based, human; details: 48 h
MDA-MB-435 = assay: NCI-60 antiproliferative screen (SRB); assay type: cell-based, human; details: 48 h
BT-549 = assay: NCI-60 antiproliferative screen (SRB); assay type: cell-based, human; details: 48 h
HCT-15 = assay: NCI-60 antiproliferative screen (SRB); assay type: cell-based, human; details: 48 h
HT29 = assay: NCI-60 antiproliferative screen (SRB); assay type: cell-based, human; details: 48 h
SK-MEL-2 = assay: NCI-60 antiproliferative screen (SRB); assay type: cell-based, human; details: 48 h
[1] = tested on: NCI-60 human cancer cell lines; assay: NCI-60 screen, full panel summary; assay type: cell-based; details: 10 µM single dose
Method: In a comprehensive test, compounds were assayed at a single dose concentration (10^−5 M) in the full panel of NCI-60 cancer cell lines.

`O=C1Nc2cc(Cl)ccc2C1=Cc1ccc(OCc2cccnc2)cc1` (mixture of isomers) [Compound 5l, (E/Z)-6-Chloro-3-[4-(pyridin-3-ylmethoxy)benzylidene] indolin-2-one] was tested, and the inhibition at 10 µM (SW-620; Homo sapiens, 10 µM single dose, SW-620 (Colon), read-out: Growth inhibition (%)) was 92.7%, the GI50 (SW-620; Homo sapiens, five-dose, SW-620) was 2.76 µM and the TGI (SW-620; five-dose, SW-620) was >100 µM. The inhibition at 10 µM (K-562; Homo sapiens, K562, 10 µM single dose, K-562 (Leukemia), read-out: Growth inhibition (%)) was 95%, the GI50 (K-562; Homo sapiens, K562, five-dose, K-562) was 3.08 µM and the CC50 (K-562; Homo sapiens, K562, five-dose, K-562, read-out: LC50 (the source's name)) was > 100 µM. For the same compound, the TGI (K-562; five-dose, K-562) was >100 µM, the inhibition at 10 µM (786-0; Homo sapiens, 10 µM single dose, 786-0 (Renal), read-out: Growth inhibition (%)) was 47.2% and the GI50 (786-0; Homo sapiens, five-dose, 786-0) was 26.6 µM. For the same compound, the CC50 (786-0; Homo sapiens, five-dose, 786-0, read-out: LC50 (the source's name)) was > 100 µM, the TGI (786-0; five-dose, 786-0) was >100 µM and the inhibition at 10 µM (HS 578T; Homo sapiens, 10 µM single dose, HS 578T (Breast), read-out: Growth inhibition (%)) was 62.7%. The GI50 (HS 578T; Homo sapiens, five-dose, HS 578T) was 12.8 µM, the CC50 (HS 578T; Homo sapiens, five-dose, HS 578T, read-out: LC50 (the source's name)) was > 100 µM and the TGI (HS 578T; five-dose, HS 578T) was 98.10 µM. For the same compound, the inhibition at 10 µM (MOLT-4; 10 µM single dose, MOLT-4 (Leukemia), read-out: Growth inhibition (%)) was 98.1%, the GI50 (MOLT-4; five-dose, MOLT-4) was 2.99 µM and the CC50 (MOLT-4; five-dose, MOLT-4, read-out: LC50 (the source's name)) was > 100 µM. The inhibition at 10 µM (A549/ATCC; Homo sapiens, 10 µM single dose, A549/ATCC (NSCLC), read-out: Growth inhibition (%)) was 58.8%, the GI50 (A549/ATCC; Homo sapiens, five-dose, A549/ATCC) was 15.5 µM and the TGI (A549/ATCC; five-dose, A549/ATCC) was >100 µM. The inhibition at 10 µM (HCT-116; Homo sapiens, 10 µM single dose, HCT-116 (Colon), read-out: Growth inhibition (%)) was 93%, the GI50 (HCT-116; Homo sapiens, five-dose, HCT-116) was 6.97 µM and the TGI (HCT-116; five-dose, HCT-116) was >100 µM. The inhibition at 10 µM (MDA-MB-468; Homo sapiens, 10 µM single dose, MDA-MB-468 (Breast), read-out: Growth inhibition (%)) was 85.7%, the GI50 (MDA-MB-468; Homo sapiens, five-dose, MDA-MB-468) was 3.76 µM and the CC50 (MDA-MB-468; Homo sapiens, five-dose, MDA-MB-468, read-out: LC50 (the source's name)) was > 100 µM. The TGI (MDA-MB-468; five-dose, MDA-MB-468) was 43.00 µM, the inhibition at 10 µM (MDA-MB-435; Homo sapiens, 10 µM single dose, MDA-MB-435 (Melanoma), read-out: Growth inhibition (%)) was 121% and the GI50 (MDA-MB-435; Homo sapiens, five-dose, MDA-MB-435) was 4.44 µM. The TGI (MDA-MB-435; five-dose, MDA-MB-435) was 76.90 µM, the inhibition at 10 µM (BT-549; Homo sapiens, 10 µM single dose, BT-549 (Breast), read-out: Growth inhibition (%)) was 95.7% and the GI50 (BT-549; Homo sapiens, five-dose, BT-549) was 10.4 µM. For the same compound, the CC50 (BT-549; Homo sapiens, five-dose, BT-549, read-out: LC50 (the source's name)) was > 100 µM, the TGI (BT-549; five-dose, BT-549) was 46.30 µM and the inhibition at 10 µM (HCT-15; Homo sapiens, 10 µM single dose, HCT-15 (Colon), read-out: Growth inhibition (%)) was 97.2%. For the same compound, the GI50 (HCT-15; Homo sapiens, five-dose, HCT-15) was 3.46 µM, the TGI (HCT-15; five-dose, HCT-15) was 25.20 µM and the inhibition at 10 µM (HT29; Homo sapiens, HT-29, 10 µM single dose, HT29 (Colon), read-out: Growth inhibition (%)) was 90.3%. The GI50 (HT29; Homo sapiens, HT-29, five-dose, HT29) was 6.45 µM, the CC50 (HT29; Homo sapiens, HT-29, five-dose, HT29, read-out: LC50 (the source's name)) was > 100 µM and the TGI (HT29; five-dose, HT29) was 37.80 µM. The inhibition at 10 µM (SK-MEL-2; Homo sapiens, 10 µM single dose, SK-MEL-2 (Melanoma), read-out: Growth inhibition (%)) was 66.2%, the GI50 (SK-MEL-2; Homo sapiens, five-dose, SK-MEL-2) was 9.67 µM and the CC50 (SK-MEL-2; Homo sapiens, five-dose, SK-MEL-2, read-out: LC50 (the source's name)) was > 100 µM. For the same compound, the TGI (SK-MEL-2; five-dose, SK-MEL-2) was 65.90 µM, the “Positive Cytostatic Effect (cell lines with percent growth from 0 to 50 / total number of cell lines)” value [1] was 44/56 and the “Positive Cytotoxic Effect (cell lines with percent growth of <0 / total number of cell lines)” value [1] was 4/56. For the same compound, the “Sensitive/Total Cell Lines” value [1] was 48/56, the “The Most Sensitive Cell Line” value [1] was “SK-MEL-5” and the “number of cell lines with cytostatic effects” value [1] was 44. The “number of cell lines with cytotoxic effects” value [1] was 4 and the “Mean Growth Percent” value ([1]; all NCI-60 cell lines) was 72.81.
